Reference: ChEMBL document CHEMBL5338738, “Discovery of Novel Sesquiterpene Lactone Derivatives as Potent PKM2 Activators for the Treatment of Ulcerative Colitis” (J Med Chem, 2023)
Activity calls are given as the source filed them. The rule behind the calls is not given here.

Experiments:
CD4+ve Th [1] = assay: Inhibition of Th17 cells differentiation in anti-CD3/CD28 stimulated C57BL/6 mouse mesenteric lymph node CD4+ve Th cells assessed as downregulation of IL23r mRNA expression level at 0.1 to 3 uM incubated for 96 hrs in presence of recombinant human TGF-beta, recombinant mouse IL-6 and recombinant mouse IL-23 by qPCR analysis; assay type: functional, cell-based; details: dose 0.1-3 µM
Mus musculus [2] = assay: Anti-colitis activity against DSS-induced ulcerative colitis C57BL/6 mouse model assessed as downregulation of Foxp3 mRNA expression level in colon at 6.25 to 25 mg/kg, po for 10 days consecutively by qPCR assay; assay type: functional, organism-based; details: dose 6.25-25 mg/kg, time 10.0 day
CD4+ve Th [3] = assay: Inhibition of aerobic glycolysis in anti-CD3/CD28 stimulated C57BL/6 mouse mesenteric lymph node CD4+ve Th cells assessed as downregulation of Hk2 mRNA expression level at 0.3 to 3 uM incubated for 96 hrs in presence of recombinant human TGF-beta, recombinant mouse IL-6 and recombinant mouse IL-23 by qPCR analysis; assay type: functional, cell-based; details: dose 0.3-3 µM
Mus musculus [4] = assay: Anti-colitis activity against DSS-induced ulcerative colitis C57BL/6 mouse model assessed as decrease in percentage of Th17 cells in colonic lamina propria at 12.5 to 25 mg/kg, po for 10 days consecutively by flow cytometry; assay type: functional, organism-based; details: dose 12.5-25 mg/kg, time 10.0 day
Mus musculus [5] = assay: Anti-colitis activity against DSS-induced ulcerative colitis C57BL/6 mouse model assessed as reduction in disease activity index (DAI) score at 12.5 to 25 mg/kg, po for 10 days consecutively; assay type: functional, organism-based; details: dose 12.5-25 mg/kg, time 10.0 day
Mus musculus [6] = assay: Anti-colitis activity against DSS-induced ulcerative colitis C57BL/6 mouse model assessed as downregulation of IL17a mRNA expression level in mesenteric lymph nodes at 12.5 to 25 mg/kg, po for 10 days consecutively by qPCR assay; assay type: functional, organism-based; details: dose 12.5-25 mg/kg, time 10.0 day
CD4+ve Th [7] = assay: Inhibition of Th17 cells differentiation in anti-CD3/CD28 stimulated C57BL/6 mouse mesenteric lymph node CD4+ve Th cells assessed as decrease in total PKM2 expression at 0.1 to 3 uM incubated for 96 hrs in presence of recombinant human TGF-beta, recombinant mouse IL-6 and recombinant mouse IL-23 by Western blot analysis; assay type: functional, cell-based; details: dose 0.1-3 µM
Mus musculus [8] = assay: Anti-colitis activity against DSS-induced ulcerative colitis C57BL/6 mouse model assessed as downregulation of IL17a mRNA expression level in spleen at 12.5 to 25 mg/kg, po for 10 days consecutively by qPCR assay; assay type: functional, organism-based; details: dose 12.5-25 mg/kg, time 10.0 day
[9] = Tmax in Sprague-Dawley rat at 75 mg/kg,po and measured upto 24 hrs by LC-MS/MS analysis; assay type: ADME, organism-based; details: in vivo
Pyruvate kinase PKM = Pyruvate kinase PKM (Homo sapiens, UniProt P14618); assay: Covalent binding affinity to recombinant human PKM2 at Cys424 residue at 20 uM incubated for 120 mins by LC-MS/MS analysis; details: filed as activator
Sequence of Pyruvate kinase PKM (P14618 2-531 limits assumed): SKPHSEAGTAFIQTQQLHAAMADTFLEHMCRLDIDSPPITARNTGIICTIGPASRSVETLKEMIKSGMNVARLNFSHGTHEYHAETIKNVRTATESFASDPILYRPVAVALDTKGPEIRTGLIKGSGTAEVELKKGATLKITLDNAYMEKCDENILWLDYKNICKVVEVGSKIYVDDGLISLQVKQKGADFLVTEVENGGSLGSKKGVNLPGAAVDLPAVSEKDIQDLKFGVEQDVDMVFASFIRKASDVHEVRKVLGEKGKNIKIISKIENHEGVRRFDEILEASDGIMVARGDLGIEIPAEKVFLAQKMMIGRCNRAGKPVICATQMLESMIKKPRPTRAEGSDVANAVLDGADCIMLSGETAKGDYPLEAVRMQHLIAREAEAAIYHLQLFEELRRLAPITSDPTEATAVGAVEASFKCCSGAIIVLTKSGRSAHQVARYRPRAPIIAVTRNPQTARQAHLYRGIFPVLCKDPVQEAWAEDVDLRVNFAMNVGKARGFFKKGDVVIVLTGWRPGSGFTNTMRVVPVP

Mus musculus [10] = assay: Anti-colitis activity against DSS-induced ulcerative colitis C57BL/6 mouse model assessed as downregulation of Foxp3 mRNA expression level in mesenteric lymph nodes at 6.25 to 25 mg/kg, po for 10 days consecutively by qPCR assay; assay type: functional, organism-based; details: dose 6.25-25 mg/kg, time 10.0 day
Mus musculus [11] = assay: Anti-colitis activity against DSS-induced ulcerative colitis C57BL/6 mouse model assessed as downregulation of IL10 mRNA expression level in mesenteric lymph nodes at 6.25 to 25 mg/kg, po for 10 days consecutively by qPCR assay; assay type: functional, organism-based; details: dose 6.25-25 mg/kg, time 10.0 day
[12] = Inhibition of Th17 cells differentiation in anti-CD3/CD28 stimulated C57BL/6 mouse mesenteric lymph node CD4+ve Th cells assessed as decrease in proportion of IL17A-positive Th17 cells at 1 uM incubated for 96 hrs in presence of recombinant human TGF-beta, recombinant mouse IL-6 and recombinant mouse IL-23 by flow cytometry (Rvb= 16.7%); assay type: functional; details: C57BL/6, CD4+ve Th
CD4+ve Th [13] = assay: Effect on apoptosis in C57BL/6 mouse mesenteric lymph node CD4+ve Th cells assessed as apoptotis rate at 0.3 to 3 uM incubated for 96 hrs by Annexin-V/PI staining based flow cytometry; assay type: functional, cell-based; details: dose 0.3-3 µM
[14] = Toxicity in C57BL/6 mouse assessed as histological change in spleen at 6.25 to 25 mg/kg, po for 10 days consecutively by H and E staining based microscopy; assay type: organism-based; details: in vivo, 240 h, dose 6.25-25 mg/kg, time 10 day
Mus musculus [15] = assay: Anti-colitis activity against TNBS-induced ulcerative colitis BALB/c mouse model assessed as decrease in crypt necrosis in colon at 12.5 to 25 mg/kg, po for consecutive 7 days by H and E staining based microscopy; assay type: functional, organism-based; details: dose 12.5-25 mg/kg, time 7.0 day
[16] = Oral bioavailability in Sprague-Dawley rat at 75 mg/kg and measured upto 24 hrs by LC-MS/MS analysis; assay type: ADME, organism-based; details: in vivo
CD4+ve Th [17] = assay: Inhibition of Th17 cells differentiation in anti-CD3/CD28 stimulated C57BL/6 mouse mesenteric lymph node CD4+ve Th cells assessed as downregulation of IL17a mRNA expression level at 0.1 to 3 uM incubated for 96 hrs in presence of recombinant human TGF-beta, recombinant mouse IL-6 and recombinant mouse IL-23 by qPCR analysis; assay type: functional, cell-based; details: dose 0.1-3 µM
Mus musculus [18] = assay: Anti-colitis activity against DSS-induced ulcerative colitis C57BL/6 mouse model assessed as decrease in TNF-alpha mRNA expression level in colon at 12.5 to 25 mg/kg, po for 10 days consecutively by qPCR analysis; assay type: functional, organism-based; details: dose 12.5-25 mg/kg, time 10.0 day
[19] = MRT(t) in Sprague-Dawley rat at 75 mg/kg,po and measured upto 24 hrs by LC-MS/MS analysis; assay type: ADME, organism-based; details: in vivo
Mus musculus [20] = assay: Anti-colitis activity against DSS-induced ulcerative colitis C57BL/6 mouse model assessed as decrease in MPO level in colon at 12.5 to 25 mg/kg, po for 10 days consecutively; assay type: functional, organism-based; details: dose 12.5-25 mg/kg, time 10.0 day
[21] = molecular target: Pyruvate kinase PKM (Mus musculus) (UniProt P52480); assay: Binding affinity to PKM2 in C57BL/6 mouse mesenteric lymph node CD4+ve Th cells assessed as increase in denaturation temperature at 3 uM incubated for 4 hrs by […] analysis; details: filed as activator
Sequence of Pyruvate kinase PKM (Mus musculus) (P52480 whole entry): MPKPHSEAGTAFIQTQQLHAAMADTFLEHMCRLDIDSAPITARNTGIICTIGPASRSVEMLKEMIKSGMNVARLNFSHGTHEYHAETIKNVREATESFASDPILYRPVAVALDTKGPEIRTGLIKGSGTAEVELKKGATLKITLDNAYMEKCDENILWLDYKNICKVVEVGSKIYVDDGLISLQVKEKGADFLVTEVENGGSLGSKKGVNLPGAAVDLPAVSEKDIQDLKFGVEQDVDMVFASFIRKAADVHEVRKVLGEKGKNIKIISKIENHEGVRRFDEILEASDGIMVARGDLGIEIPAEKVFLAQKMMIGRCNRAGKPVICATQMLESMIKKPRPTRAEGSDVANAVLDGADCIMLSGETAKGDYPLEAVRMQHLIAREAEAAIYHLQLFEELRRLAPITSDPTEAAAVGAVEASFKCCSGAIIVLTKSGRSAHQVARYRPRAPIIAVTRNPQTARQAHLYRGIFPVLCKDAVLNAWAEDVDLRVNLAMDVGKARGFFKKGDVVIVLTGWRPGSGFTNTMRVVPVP

CD4+ve Th [22] = assay: Cytotoxicity against C57BL/6 mouse mesenteric lymph node CD4+ve Th cells assessed as reduction in cell viability at 0.3 to 3 uM incubated for 96 hrs by MTT assay; assay type: toxicity, cell-based; details: dose 0.3-3 µM
Mus musculus [23] = assay: Anti-colitis activity against DSS-induced ulcerative colitis C57BL/6 mouse model assessed as reduction in mucosal damage in colon at 12.5 to 25 mg/kg, po for 10 days consecutively by H and E staining based microscopic analysis; assay type: functional, organism-based; details: dose 12.5-25 mg/kg, time 10.0 day
Mus musculus [24] = assay: Anti-colitis activity against DSS-induced ulcerative colitis C57BL/6 mouse model assessed as reduction in histological score in colon at 12.5 to 25 mg/kg, po for 10 days consecutively by H and E staining based microscopic analysis; assay type: functional, organism-based; details: dose 12.5-25 mg/kg, time 10.0 day
Mus musculus [25] = assay: Anti-colitis activity against DSS-induced ulcerative colitis C57BL/6 mouse model assessed as downregulation of RORC mRNA expression level in spleen at 12.5 to 25 mg/kg, po for 10 days consecutively by qPCR assay; assay type: functional, organism-based; details: dose 12.5-25 mg/kg, time 10.0 day
[26] = Half life in Sprague-Dawley rat at 75 mg/kg,po and measured upto 24 hrs by LC-MS/MS analysis; assay type: ADME, organism-based; details: in vivo

Structure (SMILES): C=C1C(=O)O[C@H]2[C@H]1CC[C@@]1(C)[C@@H](CC[C@@]3(C)O[C@@H]23)C1(F)F
- inhibition (CD4+ve Th [1]): Active
- Activity (Mus musculus [2]): inactive
- inhibition (CD4+ve Th [3]): Active
- Activity (Mus musculus [4]): Active
- Activity (Mus musculus [5]): Active
- Activity (Mus musculus [6]): Active
- inhibition (CD4+ve Th [7]): Active
- Activity (Mus musculus [8]): Active
- Tmax [9]: 6 h
- Activity (Pyruvate kinase PKM): Active
- Activity (Mus musculus [10]): inactive
- Activity (Mus musculus [11]): inactive
- IL17A+ cells at 1 µM [12]: 8.1%
- Activity (CD4+ve Th [13]): inactive
- Activity [14]: Non-Toxic
- Activity (Mus musculus [15]): Active
- bioavailability [16]: 2.8%
- inhibition (CD4+ve Th [17]): Active
- Activity (Mus musculus [18]): Active
- MRT last at 24 h [19]: 12.4 h
- Activity (Mus musculus [20]): Active
- ΔTm [21]: 6 °C
- Activity (CD4+ve Th [22]): Non-Toxic
- Activity (Mus musculus [23]): Active
- Activity (Mus musculus [24]): Active
- Activity (Mus musculus [25]): Active
- half-life [26]: 8 h
